# According to publication PMC12453121, “The combined effects of tick defensin persulcatusin with conventional antibiotics and antimicrobial proteins/peptides against Staphylococcus aureus” (Microbiology, 2025):
# Values joined by “and” are separate entries in the source; they are usually repeats but may differ in a detail not shown here. Identical values can stand only once. Like-named read-outs stand apart in the source and are kept apart here. Where a SMILES comes first, the peptide text is derived from it. Bridges are numbered along the chain shown (N, C = ends). Where no end group is shown, it is not given here. [ ]: non-standard residue; d: D form. The star is where a group is joined. Ileψ(thiazoline)Cys = CC[C@H](C)[C@H](N)C1=N[C@H](C(=O)*)CS1; dOrn = NCCC[C@@H](N)C(=O)O
# Tests used:
# S. aureus [1] = system: S. aureus; set-up: method as in PMID 22705395; settings: cited from earlier work
# S. aureus ATCC 29213 [2] = settings: for combined effect with IP (interpretation of FICI): named agent combined with IP, S. aureus ATCC 29213
# Procedure: A checkerboard assay was performed to evaluate the combined effect of IP and conventional antibiotics using the broth microdilution method [3031] with a final inoculum concentration of 5×10^5 c.f.u. ml^−1. Bacterial cells cultured in MHB at 30 °C were suspended in MHB or cation-adjusted MHB (caMHB) for daptomycin treatment. Bacterial suspensions were dispensed into 96-well round polypropylene plates (Watson Bio Lab, Tokyo, Japan) at an inoculum concentration of 5.0×10^5 c.f.u. ml^−1. […] After incubation at 30 °C, the OD of each well was measured using a microplate reader (MTP-310; Corona Electric Co., Ltd., Ibaraki, Japan) at 660 nm (OD660). […] The fractional inhibitory concentration (FIC) was calculated as the MIC of drug A in combination with drug B divided by drug A alone. The FIC index (FICI) was calculated as the sum of each FIC, and the lowest FICI for each combination was interpreted as follows: FICI of <0.5 was defined as synergy, FICI of ≥0.5 but <1 was defined as partial synergy, FICI of ≥1 but <4 was defined as an additive effect or irrelevant and FICI of ≥4 was defined as antagonistic.
# S. aureus ATCC 29213 [3] = assay: Killing kinetic assay of daptomycin with or without IP pretreatment; assay type: cell-based, Staphylococcus aureus; settings: c.f.u. count, triplicate
# Procedure: To examine the influence of S. aureus pretreated with IP on the efficacy of daptomycin against bacterial cells, a killing kinetic assay based on a modification of Grein’s method was conducted. Bacterial cells grown in MHB to the exponential growth phase were incubated with 16 µg ml^−1 IP (8×MIC) at 37 °C. Since IP interacts with the cell surface of S. aureus, causing depolarization within 15 min after incubation, the duration of the pretreatment with IP was set to […]. The cells were then centrifuged (5,000 g, 5 min, 25 °C), and the supernatant was discarded to remove IP. Pretreated cells were resuspended in caMHB with or without 10 µg ml^−1 daptomycin (10×MIC) and then incubated at 37 °C for 0, 15, 30, 60 and 120 min. The bacterial cells were then serially diluted with sterile PBS, and each dilution was plated on TSA plates. The colonies were left to incubate at 37 °C and were subsequently counted.
# S. aureus ATCC 29213 [4] = assay: Killing kinetic assay of IP or vancomycin in growth and non-growth states; assay type: cell-based, Staphylococcus aureus; settings: 30 °C; for survival rate in the non-growth state: 1×10^8 c.f.u./ml, within 0.5 h then constant, % of c.f.u./ml at 0 h, triplicate; for survival rate in the non-growth state / time after which bactericidal activity / reduction of survival rate appeared in growth cells: IP 32 µg/ml or vancomycin 16 µg/ml (8×MIC); for time after which bactericidal activity / reduction of survival rate appeared in growth cells: growth state (TSB, LB Lennox or MHB)
# Procedure: To study the antimicrobial effect of IP on S. aureus cells in both the growth and non-growth states, a killing kinetic assay of IP against S. aureus incubated in nutrient medium was performed as per the method described below or in the physiological buffer (PBS). Bacterial cells grown in TSB for ~24 h were adjusted to 1×10^8 c.f.u. ml^−1 in TSB, LB Lennox broth, MHB or PBS with 32 µg ml^−1 IP or 16 µg ml^−1 vancomycin, as control for antibiotic inhibited cell wall biosynthesis via interaction with lipid II, followed by incubation at 30 ℃ for a further 0.5, 1, 2, 4, 6 and 8 h. Bacterial cells were then serially diluted with sterile PBS, plated on TSA and incubated overnight at 37 °C. Colony counts were then determined, and c.f.u. ml^−1 was calculated.
# S. aureus [5] = settings: IP on cell surface of S. aureus; cited from earlier work
# [6] = named agent combined with IP (0.25–16 µg/ml), checkerboard broth microdilution in MHB (caMHB for daptomycin), 5×10^5 c.f.u./ml, 30 °C, no growth = OD660 <0.05, lowest FICI
Compound,FICI (fractional inhibitory concentration index) (S. aureus ATCC 29213 [2]; [6]),combined effect with IP (interpretation of FICI) (S. aureus ATCC 29213 [2]; checkerboard),further results
"areucin-1: antimicrobial peptide isolated from the marine polychaete lugworm Arenicola marina (printed arenicin-1 in b7) (RWCVYAYVRVRGVLVRYRRCW; ends and bridges not checked; cysteine pairing not given here; UniProt Q5SC60 182-202, looked up)",–,–,FICI with chloramphenicol (S. aureus [1]; areucin-1 combined with chloramphenicol against S. aureus): 0.5; FICI with erythromycin (S. aureus [1]; areucin-1 combined with erythromycin against S. aureus): 0.375
"CC1(C)S[C@@H]2[C@H](NC(=O)[C@H](N)c3ccccc3)C(=O)N2[C@H]1C(=O)O [ampicillin, Ampicillin]",0.375 and 0.38,synergistic,–
"GFGCPFNQGACHRHCRSIGRRGGYCAGLFKQTCTCYSR (disulfide (positions not given here)) [IP, Persulcatusin, Tick defensin isolated from the hard tick Ixodes persulcatus, 38 aa, chemically synthesized, disulphide bridges formed]",–,–,"effect of short-term IP pretreatment on killing by daptomycin (S. aureus ATCC 29213 [3]; IP 16 µg/ml (8×MIC) for 5 min at 37 °C, removed, then daptomycin 10 µg/ml in caMHB): reduced the bactericidal activity of daptomycin; survival rate in the non-growth state (S. aureus ATCC 29213 [4]; PBS): ~ 70%; time to bactericidal activity in PBS (non-growth state) (S. aureus ATCC 29213 [4]; PBS, IP 8×MIC, survival constant thereafter): ≤ 0.5 h; time after which bactericidal activity / reduction of survival rate appeared in growth cells (S. aureus ATCC 29213 [4]): 2 h; time to depolarization after incubation (S. aureus [5]): ≤ 15 min"
"Nisin (ITSISLCTPGCKTGALMGCNMKTATCHCSIHVSK; also: lantibiotic: lanthionine rings and dehydro residues, not placed; UniProt P13068 24-57, looked up)",–,Partial synergistic,FICI (fractional inhibitory concentration index) (S. aureus ATCC 29213 [2]): 0.63; MIC in the presence of sublethal concentrations of IP compared with absence of IP (S. aureus ATCC 29213 [2]): higher
"CN(C)[C@@H]1C(O)=C(C(N)=O)C(=O)[C@@]2(O)C(O)=C3C(=O)c4c(O)cccc4[C@@](C)(O)[C@H]3C[C@@H]12 [tetracycline, Tetracycline]",0.75,Partial synergistic,–
"O=C(N[C@H](CO)[C@H](O)c1ccc([N+](=O)[O-])cc1)C(Cl)Cl [chloramphenicol, Chloramphenicol]",2.0,additive or irrelevant,–
Lysostaphin,0.75,Partial synergistic,–
"NC[C@H]1O[C@H](O[C@H]2[C@H](O)[C@@H](O[C@H]3O[C@H](CO)[C@@H](O)[C@H](N)[C@H]3O)[C@H](N)C[C@@H]2N)[C@H](O)[C@@H](O)[C@@H]1O [kanamycin, Kanamycin]",2.0,additive or irrelevant,–
"Cc1nnc(SCC2=C(C(=O)O)N3C(=O)[C@@H](NC(=O)Cn4cnnn4)[C@H]3SC2)s1 [cefazolin, Cefazolin]",0.75,Partial synergistic,–
Lysozyme,–,Partial synergistic,–
CC[C@H](C)[C@H](NC(=O)[C@H](CCCCN)NC(=O)[C@H](CCC(=O)O)NC(=O)[C@H](CCCCN)NC(=O)[C@H](CO)NC(=O)[C@H](CCCCN)NC(=O)[C@H](CCCNC(=N)N)NC(=O)[C@H](Cc1ccccc1)NC(=O)[C@H](Cc1ccccc1)NC(=O)[C@H](CC(=O)O)NC(=O)CNC(=O)[C@H](CC(C)C)NC(=O)[C@@H](N)CC(C)C)C(=O)NCC(=O)N[C@@H](CCCCN)C(=O)N[C@@H](CCC(=O)O)C(=O)N[C@@H](Cc1ccccc1)C(=O)N[C@@H](CCCCN)C(=O)N[C@@H](CCCNC(=N)N)C(=O)N[C@H](C(=O)N[C@H](C(=O)N[C@@H](CCC(N)=O)C(=O)N[C@@H](CCCNC(=N)N)C(=O)N[C@H](C(=O)N[C@@H](CCCCN)C(=O)N[C@@H](CC(=O)O)C(=O)N[C@@H](Cc1ccccc1)C(=O)N[C@@H](CC(C)C)C(=O)N[C@@H](CCCNC(=N)N)C(=O)N[C@@H](CC(N)=O)C(=O)N[C@@H](CC(C)C)C(=O)N[C@H](C(=O)N1CCC[C@H]1C(=O)N[C@@H](CCCNC(=N)N)C(=O)N[C@H](C(=O)N[C@@H](CCC(=O)O)C(=O)N[C@@H](CO)C(=O)O)[C@@H](C)O)C(C)C)[C@@H](C)CC)C(C)C)[C@@H](C)CC [LL-37],0.25,synergistic,–
Gentamycin,1.0,additive or irrelevant,–
"CCCCCCCCCC(=O)N[C@@H](Cc1c[nH]c2ccccc12)C(=O)N[C@H](CC(N)=O)C(=O)N[C@@H](CC(=O)O)C(=O)N[C@@H]1C(=O)NCC(=O)N[C@@H](CCCN)C(=O)N[C@@H](CC(=O)O)C(=O)N[C@H](C)C(=O)N[C@@H](CC(=O)O)C(=O)NCC(=O)N[C@H](CO)C(=O)N[C@@H]([C@H](C)CC(=O)O)C(=O)N[C@@H](CC(=O)c2ccccc2N)C(=O)O[C@@H]1C [daptomycin, Daptomycin]",–,"additive, irrelevant or antagonistic","FICI (fractional inhibitory concentration index) (S. aureus ATCC 29213 [2]): exceeded 2.0; MIC in the presence of sublethal concentrations of IP compared with absence of IP (S. aureus ATCC 29213 [2]; IP 0.25 to 1 µg/ml for nisin, 0.25 to 4 µg/ml for daptomycin, checkerboard): higher; time to significant reduction in bacterial cells (bactericidal activity) (S. aureus ATCC 29213 [3]; daptomycin 10 µg/ml (10×MIC), caMHB, 37 °C, no pretreatment, P<0.05): ≤ 2 h"
"CC[C@H]1OC(=O)[C@H](C)[C@@H](O[C@H]2C[C@@](C)(OC)[C@@H](O)[C@H](C)O2)[C@H](C)[C@@H](O[C@@H]2O[C@H](C)C[C@H](N(C)C)[C@H]2O)[C@](C)(O)C[C@@H](C)C(=O)[C@H](C)[C@@H](O)[C@]1(C)O [erythromycin, Erythromycin]",2.0,additive or irrelevant,–
"O=C(O)c1cn(C2CC2)c2cc(N3CCNCC3)c(F)cc2c1=O [ciprofloxacin, Ciprofloxacin]",–,Partial synergistic,–
"CC[C@H](C)[C@H](N)C1=N[C@H](C(=O)N[C@@H](CC(C)C)C(=O)N[C@H](CCC(=O)O)C(=O)N[C@H](C(=O)N[C@H]2CCCCNC(=O)[C@H](CC(N)=O)NC(=O)[C@@H](CC(=O)O)NC(=O)[C@H](Cc3cnc[nH]3)NC(=O)[C@@H](Cc3ccccc3)NC(=O)[C@H]([C@@H](C)CC)NC(=O)[C@@H](CCCN)NC2=O)[C@@H](C)CC)CS1 [bacitracin, Bacitracin] ({Ileψ(thiazoline)Cys}-L[dE]IK[dOrn]I[dF]H[dD]N; lactam 4-C (inferred); N-terminus assumed)",0.50,Partial synergistic,–
"CN[C@H](CC(C)C)C(=O)N[C@H]1C(=O)N[C@@H](CC(N)=O)C(=O)N[C@H]2C(=O)N[C@H]3C(=O)N[C@H](C(=O)N[C@H](C(=O)O)c4cc(O)cc(O)c4-c4cc3ccc4O)[C@H](O)c3ccc(c(Cl)c3)Oc3cc2cc(c3O[C@@H]2O[C@H](CO)[C@@H](O)[C@H](O)[C@H]2O[C@H]2C[C@](C)(N)[C@H](O)[C@H](C)O2)Oc2ccc(cc2Cl)[C@H]1O [vancomycin, Vancomycin]",–,additive or irrelevant,FICI (fractional inhibitory concentration index) (S. aureus ATCC 29213 [2]): 2.0; survival rate in the non-growth state (S. aureus ATCC 29213 [4]; PBS): no reduction; time after which bactericidal activity / reduction of survival rate appeared in growth cells (S. aureus ATCC 29213 [4]): 8 h
